Earlier results as cited in patent EP1085079A1, “Treatment compositions for fabrics” (THE PROCTER & GAMBLE COMPANY, priority 1999, dated 2001).

| Compound | stability over a wide pH range |
| --- | --- |
| Cn1sc2c(c1=O)CCC2 [Promexal, 2-methyl-4,5-trimethylene-4-isothiazolin-3-one] | 4-12 |
| O=c1[nH]sc2ccccc12 [Proxel, 1,2-benzisothiazolin-3-one] | 4-12 |
